The term Kd denotes the concentration at which binding is half-saturated.

A value given as a limit tells only on which side of the number the result lay.

T1 sequence (Q9QYN8 whole entry): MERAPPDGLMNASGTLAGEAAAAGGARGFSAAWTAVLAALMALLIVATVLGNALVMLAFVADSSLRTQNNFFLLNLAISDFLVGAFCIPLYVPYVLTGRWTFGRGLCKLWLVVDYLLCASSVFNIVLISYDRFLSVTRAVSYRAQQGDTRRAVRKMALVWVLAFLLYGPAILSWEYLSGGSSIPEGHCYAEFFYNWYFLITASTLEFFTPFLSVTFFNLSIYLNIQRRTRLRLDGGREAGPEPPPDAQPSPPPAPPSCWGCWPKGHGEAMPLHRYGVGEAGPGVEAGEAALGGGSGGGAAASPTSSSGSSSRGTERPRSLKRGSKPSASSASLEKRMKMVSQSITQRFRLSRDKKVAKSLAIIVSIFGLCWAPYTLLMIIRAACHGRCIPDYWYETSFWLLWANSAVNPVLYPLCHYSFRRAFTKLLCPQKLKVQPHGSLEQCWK

One assay concerns the target T1, histamine H3 receptor (Rattus norvegicus, UniProt Q9QYN8).
T1 construct: from tissue; host or cells: rat striatum (Sprague-Dawley, male, 6 weeks), membrane homogenate
The assay is described as follows: Histamine H3 receptor binding assay ([3H]-Nα-methylhistamine binding to rat striatum homogenate). Particulars: 1 μmol/L test compound; [3H]-Nα-methylhistamine 1 nmol/L; striata of Sprague-Dawley male rats, 25° C., 1 hour; read-out: Inhibition ratio of [3H]-Nα-methylhistamine binding. As for the experimental part:
To the striata of Sprague-Dawley male rats (6 weeks of age), a 10-fold volume of lysis buffer {50 mmol/L [[…] (Tris)]/HCl (pH 7.4), 5 mmol/L ethylenediaminetetraacetic acid (EDTA), a protease inhibitor mixture [1 mg/mL phenylmethylsulfonyl fluoride (PMSF), 1 μg/mL pepstatin A, 1 μg/mL leupeptin, 1 μg/mL chymostatin]} was added and the striata were homogenized. The resulting homogenate was centrifuged (30,000×g, 4° C., 30 min), and the obtained precipitate was resuspended in a 10-fold volume of lysis buffer, followed by centrifugation under the same condition. To the obtained precipitate, a 3-fold volume of lysis buffer was added to suspend the precipitate, and the resulting tissue homogenate was used for a test.
A test compound was dissolved in an assay buffer [50 mmol/L Tris/HCl (pH 7.4), 5 mmol/L EDTA], and [^3H]-N^α-methylhistamine (1 nmol/L) and the tissue homogenate (20 μg, in terms of protein amount) were added thereto, and then, the mixture was incubated at 25° C. for 1 hour. Then, the reaction was terminated by rapid suction filtration on a glass filter [GF/B: Whatman, previously soaked in 0.3 w/v % polyethylenimine for about 30 min]. Then, the glass filter was washed three times with 3 mL of assay buffer. This glass filter was transferred into a scintillation vial and dried at 60° C. for 30 minutes. Then, 0.5 mL of Ultimagold (Perkin Elmer) was added thereto, and the radioactivity (binding amount of [^3H]-N^α-methylhistamine) was measured using a liquid scintillation counter. The obtained value was used as a binding amount in the presence of the test compound. The same procedure as described above was carried out in the absence of the test compound, and the binding amount of [^3H]-N^α-methylhistamine obtained at this time was used as a binding amount in the absence of the test compound. Further, the binding amount of [^3H]-N^α-methylhistamine obtained in the presence of 10 μmol/L thioperamide was used as a non-specific binding amount. An inhibitory action of [^3H]-N^α-methylhistamine binding was represented by an inhibition ratio in terms of 1 μmol/L of the test compound calculated by the following Equation (1).
Inhibition ratio(%)={1−[(Binding amount in the presence of test compound)−(Non-specific binding amount)]/[(Binding amount in the absence of test compound)−(Non-specific binding amount)]}×100 (1)
On to `CC1CCCN1CCCNC(=C(C#N)C#N)N1CCC(CN2CCCCC2)CC1` (stereo not shown) [Compound 173, {[3-(2-Methylpyrrolidin-1-yl)propylamino](4-piperidinomethylpiperidino)methylene}malononitrile], for which the inhibition at 1 µM is ≥ 80%. Still for that read-out and setting: the same measure for `CC1CC(C)CN(CCCN2CCN(CCN3CC(C)CC(C)C3)C2=C(C#N)C#N)C1` (stereo not shown) [Compound 17, {1-[2-(3,5-Dimethylpiperidino)ethyl]-3-[3-(3,5-dimethylpiperidino)propyl]imidazolidin-2-ylidene}malononitrile]: ≥ 80%.

`C[C@@H]1CCC[C@H](C)N1CCCN1CCN(CCN2CCCCC2)C1=C(C#N)C#N` [Compound 50, {1-[3-(Cis-2,6-dimethylpiperidino)propyl]-3-(2-piperidinoethyl)imidazolidin-2-ylidene}malononitrile Difumarate]: the inhibition at 1 µM is ≥ 80%. The same measure, in the same setting: the same measure for `CC1CCCN1CCCN1CCN(CCCN2CCCC2)C1=C(C#N)C#N` (stereo not shown) [Compound 97, {1-[3-(2-Methylpyrrolidin-1-yl)propyl]-3-[3-(pyrrolidin-1-yl)propyl]imidazolidin-2-ylidene}malononitrile]: ≥ 80%; for `N#CC(C#N)=C1N(CCCN2CCCCC2)CCN1CCCN1CCOCC1` [Compound 83, [1-(3-Morpholinopropyl)-3-(3-piperidinopropyl)imidazolidin-2-ylidene]malononitrile]: ≥ 80%; for `CC1CC(C)CN(CCCN2CCN(CCCN3CC=CCC3)C2=C(C#N)C#N)C1` (stereo not shown) [Compound 91, {1-[3-(1,2,3,6-Tetrahydropyridin-1-yl)propyl]-3-[3-(3,5-dimethylpiperidino)propyl]imidazolidin-2-ylidene}malononitrile]: ≥ 80%. For `N#CC(C#N)=C(NCCCN1CCCCC1)N1CCC(CN2CCCCC2)CC1` [Compound 172, [(4-Piperidinomethylpiperidino)(3-piperidinopropylamino)methylene]malononitrile], the inhibition at 1 µM was ≥ 80%. On the same count and under the same terms, the same measure for `C[C@@H]1CCCN1CCCCN1CCN(CCN2CCC[C@H]2C)C1=C(C#N)C#N` [Compound 191, {1-[4-((R)-2-methylpyrrolidin-1-yl)butyl]-3-[2-((R)-2-methylpyrrolidin-1-yl)ethyl]imidazolidin-2-ylidene}malononitrile]: ≥ 80%; for `CC1CCCCN1CCCN1CCN(CCCN2CCCCC2)C1=C(C#N)C#N` (stereo not shown) [Compound 98, {1-[3-(2-Methylpiperidino)propyl]-3-(3-piperidinopropyl)imidazolidin-2-ylidene}malononitrile]: ≥ 80%.

As for `N#CC(C#N)=C1N(CCCN2CCC(C#N)CC2)CCN1CCN1CCCCC1` [Compound 40, {1-[3-(4-Cyanopiperidino)propyl]-3-(2-piperidinoethyl)imidazolidin-2-ylidene}malononitrile], the inhibition at 1 µM was ≥ 80%. Consider `N#CN=C1N(CCCN2CCCCC2)CCN1CCCN1CCCCC1` [Compound 139, 1,3-Bis(3-piperidinopropyl)imidazolidin-2-ylidene Cyanoamide Difumarate], for which the inhibition at 1 µM was ≥ 80%.

As to `CC(C)N1CCC(N2CCN(CCC3CCCN3C)C2=C(C#N)C#N)CC1` (stereo not shown) [Compound 187, {1-(1-Isopropylpiperidin-4-yl)-3-[2-(1-methylpyrrolidin-2-yl)ethyl]imidazolidin-2-ylidene}malononitrile], the inhibition at 1 µM was ≥ 80%. Still for that read-out and setting: the figure for `N#CC(C#N)=C1N(CCCN2CC=CCC2)CCN1CCCN1CCCCC1` [Compound 90, {1-[3-(1,2,3,6-Tetrahydropyridin-1-yl)propyl]-3-(3-piperidinopropyl)imidazolidin-2-ylidene}malononitrile] is ≥ 80%; for `CC1CCCN1CC1CCN(C(=C(C#N)C#N)N(C)CCN2CCC[C@@H]2C)CC1` (stereo partly drawn) [Compound 157, ({N-methyl-N-[2-((S)-2-methylpyrrolidin-1-yl)ethyl]amino}[4-(2-methylpyrrolidin-1-ylmethyl)piperidino]methylene)malononitrile] it is ≥ 80%. The same measure, in the same setting: the figure for `C[C@H]1CCCN1CCCN1CCN(CCCN2CCSCC2)C1=C(C#N)C#N` [Compound 202, {1-[3-((S)-2-methylpyrrolidin-1-yl)propyl]-3-[3-(thiomorpholin-1-yl)propyl]imidazolidin-2-ylidene}malononitrile] is ≥ 80%. The same measure, in the same setting: the same measure for `CC(C)N1CCC(N2CCN(CCN3CCC[C@@H]3C)C2=C(C#N)C#N)CC1` [Compound 210, {1-(1-Isopropylpiperidin-4-yl)-3-[2-((S)-2-methylpyrrolidin-1-yl)ethyl]imidazolidin-2-ylidene}malononitrile]: ≥ 80%. Take `CC1CC(C)CN(CCCN2CCN(CCCN3CC(C)CC(C)C3)C2=C(C#N)C#N)C1` (stereo not shown) [Compound 109, {1,3-Bis[3-(3,5-dimethylpiperidino)propyl]imidazolidin-2-ylidene}malononitrile]: the inhibition at 1 µM was ≥ 80%. Same read-out and setting: the figure for `CC1CCCN1CCCN1CCN(CCCN2CCC(=O)CC2)C1=C(C#N)C#N` (stereo not shown) [Compound 203, {1-[3-(2-Methylpyrrolidin-1-yl)propyl]-3-[3-(4-oxopiperidino)propyl]imidazolidin-2-ylidene}malononitrile] is ≥ 80%; for `C[C@@H]1CCCN1CCCN1CCN(CCCN2CCC[C@H]2C)C1=C(C#N)C#N` [Compound 116, {1,3-Bis[3-((R)-2-methylpyrrolidin-1-yl)propyl]imidazolidin-2-ylidene}malononitrile Difumarate] it is ≥ 80%. On the same count and under the same terms, the same measure for `C[C@@H]1C[C@H](C)CN(CCN2CCN(CCCN3CC=CCC3)C2=C(C#N)C#N)C1` [Compound 27, {1-[3-(1,2,3,6-Tetrahydropyridin-1-yl)propyl]-3-[2-(cis-3,5-dimethylpiperidino)ethyl]imidazolidin-2-ylidene}malononitrile]: ≥ 80%. In the case of `CC(C)N1CCC(NC(=C(C#N)C#N)N2CCC(CN3CCCCC3)CC2)CC1` [Compound 178, [(1-Isopropylpiperidin-4-ylamino)(4-piperidinomethylpiperidino)methylene]malononitrile], the inhibition at 1 µM is ≥ 80%.

Consider `CC1CCCCN1CCCN1CCN(CCCN2CCCC2)C1=C(C#N)C#N` (stereo not shown) [Compound 93, {1-[3-(2-Methylpiperidino)propyl]-3-[3-(pyrrolidin-1-yl)propyl]imidazolidin-2-ylidene}malononitrile], for which the inhibition at 1 µM is ≥ 80%. Take `N#CC(C#N)=C1N(CCCN2CCCCCC2)CCN1CCCN1CCCCCC1` [Compound 66, {1,3-Bis[3-(azepan-1-yl)propyl]imidazolidin-2-ylidene}malononitrile]: the inhibition at 1 µM is ≥ 80%. Take `CC1CC(C)CN(CCCN2CCN(CCCN3CCCCC3)C2=C(C#N)C#N)C1` (stereo not shown) [Compound 102, {1-[3-(3,5-Dimethylpiperidino)propyl]-3-(3-piperidinopropyl)imidazolidin-2-ylidene}malononitrile]: the inhibition at 1 µM was ≥ 80%. The same measure, in the same setting: the figure for `CC1CCCN1CCCN1CCCN(CCCN2CCCC2C)C1=C(C#N)C#N` (stereo not shown) [Compound 123, {1,3-Bis[3-(2-methylpyrrolidin-1-yl)propyl]hexahydropyrimidin-2-ylidene}malononitrile] is ≥ 80%. The same measure, in the same setting: the same measure for `N#CC(C#N)=C(NCCCN1CCCCC1)NCCCN1CCCCC1` [Compound 2, [Bis(3-piperidinopropylamino)methylene]malononitrile]: ≥ 80%. Turning to `N#CC(C#N)=C1N(CCCCN2CCCCC2)CCN1CCCN1CCCCC1` [Compound 8, [1-(4-Piperidinobutyl)-3-(3-piperidinopropyl)imidazolidin-2-ylidene]malononitrile], the inhibition at 1 µM is ≥ 80%. Turning to `N#CC(C#N)=C1N(CCCN2CCCCC2)CCN1CCCN1CCC(O)C1` (stereo not shown) [Compound 101, {1-[3-(3-Hydroxypyrrolidin-1-yl)propyl]-3-(3-piperidinopropyl)imidazolidin-2-ylidene}malononitrile], the inhibition at 1 µM was ≥ 80%. Still for that read-out and setting: the same measure for `CC1CCCN1CCCN1CCN(CCCN2CCOCC2)C1=C(C#N)C#N` (stereo not shown) [Compound 85, {1-[3-(2-Methylpyrrolidin-1-yl)propyl]-3-(3-morpholinopropyl)imidazolidin-2-ylidene}malononitrile]: ≥ 80%; for `N#CC(C#N)=C1N(CCCN2CCCC2)CCN1CCCN1CCOCC1` [Compound 82, {1-(3-Morpholinopropyl)-3-[3-(pyrrolidin-1-yl)propyl]imidazolidin-2-ylidene}malononitrile]: ≥ 80%.

Staying with this assay, now noted: rat striatum homogenate; read-out: dissociation constant Kd of [3H]-Nα-methylhistamine binding to the rat H3 receptor.
Take `CNCCc1cnc[nH]1` [[^3H]-N^α-methylhistamine, reference compound]: the Kd amounted to 0.57 ± 0.04 nM.

The values are drawn from patent US20090181948A1, “DIAMINE DERIVATIVE” (KYOWA HAKKO KOGYO CO., LTD., priority 2005, published 2009).
